Reference: patent publication US9328078B2, “Benzofurazan anti-amyloid compounds and methods” (Treventis Corporation, priority 2012, dated 2016)
Values joined by “and” are separate entries in the source; they are usually repeats but may differ in a detail not shown here. Equal entries are not always repeated.

Target: Aβ40 (Homo sapiens, UniProt P05067)
Assay: kinetic ThT assay for Aβ aggregation
Format: biochemical
Conditions: for inhibition at 5 µM: 80 h, read-out: % inhib Aβ 40 (5 μm); for inhibition at 10 µM: compound 10 μM, read-out: % inhib Aβ 40 10 μM; for IC50: ThT fluorescence, 20 μM Aβ, 37° C., up to 80 hr, parenthesis = compound 1027 in same experiment, read-out: IC50 A β 1-40; for inhibition at 20 µM: read-out: % inhib. A β 40 (20 μM)
Experimental: Aβ40 (1.0 mg) was pre-treated in a 1.5 mL microfuge tube with HFIP (1 mL) and sonicated for 20 min to disassemble any pre-formed Aβ aggregates. The HFIP was removed with a stream of argon and the Aβ dissolved in Tris base (5.8 mL, 20 mM, pH˜10). The pH was adjusted to 7.4 with concentrated HCl (˜10 μL) and the solution filtered using a syringe filter (0.2 μm) before being used.
The kinetic ThT assay for AP aggregation is similar to that of Chalifour et al (Chalifour et al, 2003, J. Biol. Chem. 278:34874-81). Briefly, pre-treated Aβ40 or Aβ42 (40 μM in 20 mM Tris, pH 7.4) was diluted with an equal volume of 8 μM Thioflavin T (ThT) in Tris (20 mM, pH 7.4, 300 mM NaCl). Aliquots of Aβ/ThT (200 μL) were added to wells of a black polystyrene 96-well plate, followed by 2 μL of a compound in DMSO (variable concentration), or DMSO alone (controls). Incubations were performed in triplicate and were taken to contain 20 μM Aβ, various concentration of compound in 20 mM Tris, pH 7.4, 150 mM NaCl, 1% DMSO. Plates were covered with clear polystyrene lids and incubated at 37° C. in a Tecan Genios microplate reader.
Fluorescence readings (λex=450 nm, λem=480 nm) were taken every 15 min., after first shaking at high intensity for 15 s and allowing to settle for 10 s before each reading. Active compounds attenuated the increase in fluorescence over time that occurred in controls. In FIGS. 1-7, the time this procedure was performed extended to 80 hours (rightmost part of X-axis), at which point fluorescence increase generally reached an asymptote. Applying a definition of DMSO control at 80 hr as 100% aggregation (0% inhibition) and DMSO control at 0 hr as 0% aggregation (100% inhibition), a % inhibition score where higher is better can be calculated for a given concentration of compound. By repeating this procedure over several concentrations, a […] (IC50) can be measured, as is given in the table below for some compounds.
Data is summarized in the table below; numbers given in parenthesis are the values in that particular experiment for compound ID 1027, given as the first entry in this table for comparison.

[1] = compound 5 μm, DMSO control at 80 hr = 0% inhibition, parenthesis = compound 1027
[2] = DMSO control at 80 hr = 0% inhibition, parenthesis = compound 1027
[3] = compound 20 μM, DMSO control at 80 hr = 0% inhibition, parenthesis = compound 1027

Sequence of Aβ40 (P05067 672-711 limits assumed, species assumed): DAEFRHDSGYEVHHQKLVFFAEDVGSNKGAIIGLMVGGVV

| SMILES | inhibition at 5 µM [1] | inhibition at 10 µM [2] | inhibition at 20 µM [3] | also measured |
| --- | --- | --- | --- | --- |
| OC(c1ccc(-c2cc(N3CCCC3)c3nonc3c2)s1)C(F)(F)F (stereo not drawn) [TRV-1364] |  |  |  | IC50: 1000 nM |
| CC(C)OC1CN(c2cc(-c3cccc(C(O)C(F)(F)F)c3)cc3nonc23)C1 (stereo not drawn) [TRV-1447] | 54% | 70% |  |  |
| O=C(c1cccc(-c2cc(N3CCC3)c3nonc3c2)c1)N1CCOCC1 [TRV-1442] | 29% | 43% |  |  |
| OC(c1cc(N2CCCC2)c2nonc2c1)C(F)(F)F (stereo not drawn) [TRV-1368] |  | 61.4% |  |  |
| CC(O)c1cccc(-c2cc(N(C)Cc3ccccc3)c3nonc3c2)c1 (stereo not drawn) [TRV-1358] |  | 72.7% |  |  |
| OC1(c2cc(N3Cc4ccccc4C3)c3nonc3c2)COC1 [TRV-1419] | 48% |  | 55% |  |
| CN(Cc1ccccc1)c1cc(C(O)C(F)(F)F)cc2nonc12 (stereo not drawn) [TRV-1392] | 36% |  | 69% |  |
| OC(c1ccc(-c2cc(N3CCCC3)c3nonc3c2)cc1)C(F)(F)F (stereo not drawn) [TRV-1365] |  |  |  | IC50: 920 nM |
| CC(C)N(C)c1cc(-c2cccc(C(O)C(F)(F)F)c2)cc2nonc12 (stereo not drawn) [TRV-1377] |  |  |  | IC50: 1860 nM |
| OC1CN(c2cc(-c3cccc(C(O)C(F)(F)F)c3)cc3nonc23)C1 (stereo not drawn) [TRV-1406] | 53% |  | 83% |  |
| CC(=O)c1cc(N(C)Cc2ccc(F)cc2)c2nonc2c1 [TRV-1418] | 34% |  | 55% |  |
| CN(Cc1ccccn1)c1cc(-c2cccc(C(O)C(F)(F)F)c2)cc2nonc12 (stereo not drawn) [TRV-1412] | 51% |  | 64% |  |
| CC(O)/C=C/c1cc(N(C)Cc2ccc(F)cc2)c2nonc2c1 (stereo not drawn) [TRV-1427] |  | 41% |  |  |
| CC1CCCN1c1cc(-c2cccc(C(O)C(F)(F)F)c2)cc2nonc12 (mixture of isomers) [TRV-1379] |  |  |  | IC50: 1650 nM |
| OC(c1cccc(-c2cc(N3CCOCC3)c3nonc3c2)c1)C(F)(F)F (stereo not drawn) [TRV-1360] |  | 58.9% |  |  |
| OCC1CN(c2cc(-c3cccc(C(O)C(F)(F)F)c3)cc3nonc23)C1 (stereo not drawn) [TRV-1428] |  | 78% |  |  |
| OC(c1cc(N2Cc3ccccc3C2)c2nonc2c1)C(F)(F)F (stereo not drawn) [TRV-1420] | 44% |  | 48% |  |
| CC(O)c1cccc(-c2cc(NCc3ccccc3)c3nonc3c2)c1 (stereo not drawn) [TRV-1259] |  | 66.3% |  |  |
| CCN(C)c1cc(-c2cccc(C(O)C(F)(F)F)c2)cc2nonc12 (stereo not drawn) [TRV-1384] | 72.4% |  |  |  |
| OC(c1ccccc1-c1cc(N2CCCC2)c2nonc2c1)C(F)(F)F (stereo not drawn) [TRV-1366] |  |  |  | IC50: 3030 nM |
| CC(O)c1cccc(-c2cc(N3CCCC3)c3nonc3c2)c1 (stereo not drawn) [TRV-1310] |  | 81.5% |  |  |
| CN(Cc1ccc(F)cc1)c1cc(/C=C/C(O)(C(F)(F)F)C(F)(F)F)cc2nonc12 [TRV-1400] | 48% |  | 80% |  |
| CN(Cc1ccccc1)c1cc(-c2cccc(C(O)C(F)(F)F)c2)cc2nonc12 (stereo not drawn) [TRV-1378] |  |  |  | IC50: 2380 nM |
| CN(c1cc(-c2cccc(C(O)C(F)(F)F)c2)cc2nonc12)C1CC1 (stereo not drawn) [TRV-1405] | 46% |  | 76% |  |
| COc1cc(CN(C)c2cc(-c3cccc(C(O)C(F)(F)F)c3)cc3nonc23)cc(OC)c1 (stereo not drawn) [TRV-1415] | 52% |  | 53% |  |
| CN1CCN(c2cc(-c3cccc(C(O)C(F)(F)F)c3)cc3nonc23)CC1 (stereo not drawn) [TRV-1376] |  |  |  | IC50: 51700 nM |
| COC1CN(c2cc(-c3cccc(C(O)C(F)(F)F)c3)cc3nonc23)C1 (stereo not drawn) [TRV-1403] | 51% |  | 81% |  |
| CC(O)c1cccc(-c2cc(N3CCC[C@H]3CO)c3nonc3c2)c1 (stereo partly drawn) [TRV-1359] |  | 75.2% |  |  |

Continued, in another order:

| inhibition at 5 µM [1] | inhibition at 10 µM [2] | inhibition at 20 µM [3] | SMILES | also measured |
| --- | --- | --- | --- | --- |
| 48% | 67% |  | CC1(O)CN(c2cc(-c3cccc(C(O)C(F)(F)F)c3)cc3nonc23)C1 (stereo not drawn) [TRV-1436] |  |
| 47% | 64% |  | O=C(NC1CC1)c1cccc(-c2cc(N3CCC3)c3nonc3c2)c1 [TRV-1441] |  |
| 51% |  | 75% | CN(Cc1ccc(F)cc1)c1cc(-c2cccc(C(O)C(F)(F)F)c2)cc2nonc12 (stereo not drawn) [TRV-1390] |  |
| 44% | 50% |  | CCOC1CN(c2cc(-c3cccc(C(O)C(F)(F)F)c3)cc3nonc23)C1 (stereo not drawn) [TRV-1437] |  |
| 53% |  | 69% | COc1ccc(CN(C)c2cc(-c3cccc(C(O)C(F)(F)F)c3)cc3nonc23)cc1 (stereo not drawn) [TRV-1414] |  |
|  | 88.9% |  | OC(c1cccc(-c2cc(N3CCCC3)c3nonc3c2)c1)C(F)(F)F (stereo not drawn) [TRV-1361] |  |
| 39% |  | 69% | C#CCN(C)c1cc(-c2cccc(C(O)C(F)(F)F)c2)cc2nonc12 (stereo not drawn) [TRV-1404] |  |
| 50% |  | 69% | CN(Cc1ccc(F)cc1)c1cc(/C=C/CO)cc2nonc12 [TRV-1409] |  |
| 70.4% |  |  | OC(c1cccc(-c2cc(N3CCCCC3)c3nonc3c2)c1)C(F)(F)F (stereo not drawn) [TRV-1381] |  |
| 52% |  | 75% | CN(Cc1ccc(F)cc1)c1cc(C(=O)C(F)(F)F)cc2nonc12 [TRV-1417] |  |
| 57.1% |  |  | OC(c1cccc(-c2cc(NCc3ccccc3)c3nonc3c2)c1)C(F)(F)F (stereo not drawn) [TRV-1380] |  |
| 39% |  | 58% | OC(c1cccc(-c2cc(N3Cc4ccccc4C3)c3nonc3c2)c1)C(F)(F)F (stereo not drawn) [TRV-1401] |  |
| 38% |  | 61% | CN(Cc1ccc(F)cc1)c1cc(C(O)C(F)(F)F)cc2nonc12 (stereo not drawn) [TRV-1397] |  |
| 52% | 60% |  | O=C(c1cccc(-c2cc(N3CCC3)c3nonc3c2)c1)N1CCNCC1 [TRV-1440] |  |
| 60% |  |  | CCN(CC)c1cc(-c2cccc(C(O)C(F)(F)F)c2)cc2nonc12 (stereo not drawn) [TRV-1382] |  |
|  | 51% |  | OC(c1cccc(-c2cc(N3CCC3)c3nonc3c2)c1)C(F)(F)F (stereo not drawn) [TRV-1432] |  |
| 33% |  | 69% | O=C(c1ccccc1)N1CCN(c2ccc([N+](=O)[O-])c(Nc3ccccc3)c2)CC1 [compound 1027, reference compound] | IC50: 10.5 µM (3×) and 14.7 µM and 22.1 µM (3×); % inhib. A β 40 (20 μM) [3]: 52% and 53% and 51%; % inhib Aβ 40 (3 μm) (compound 3 μm, DMSO control at 80 hr = 0% inhibition, parenthesis = compound 1027): 26%; % inhib Aβ 40 (5 μm) [1]: 38% and 33% (3×) |
| 43.8% | 62% |  | CN(C)CCCN(C)c1cc(-c2cccc(C(O)C(F)(F)F)c2)cc2nonc12 (stereo not drawn) [compound 1463] |  |
| 53% |  | 61.3% | CN(Cc1cccnc1)c1cc(-c2cccc(C(O)C(F)(F)F)c2)cc2nonc12 (stereo not drawn) [TRV-1413] |  |
| 29% | 50% |  | CN(Cc1ccc(F)cc1)c1cc(-c2cccc(C3(O)COC3)c2)cc2nonc12 [TRV-1446] |  |
| 54.9% |  |  | COCCN(C)c1cc(-c2cccc(C(O)C(F)(F)F)c2)cc2nonc12 (stereo not drawn) [TRV-1383] |  |
| 65.6% |  |  | OC(c1cccc(-c2cc(N3CCSCC3)c3nonc3c2)c1)C(F)(F)F (stereo not drawn) [TRV-1385] |  |
|  | 41.4% |  | CC(=O)c1cccc(-c2cc(N3CCCC3)c3nonc3c2)c1 [TRV-1362] |  |
| 56% |  | 81% | COC1CCN(c2cc(-c3cccc(C(O)C(F)(F)F)c3)cc3nonc23)C1 (stereo not drawn) [TRV-1411] |  |
